Data published in paper PMC6941952, “A homogeneous bioluminescent immunoassay to probe cellular signaling pathway regulation” (Communications Biology, 2020).
“And” between values parts separate entries of the source, which are not always exact repeats. Equal entries are not always repeated. Where two headings read alike, the source gives them in different places.

Target: T1, estrogen receptors (ER) (Homo sapiens, UniProt P03372)
T1 sequence (P03372 1-595): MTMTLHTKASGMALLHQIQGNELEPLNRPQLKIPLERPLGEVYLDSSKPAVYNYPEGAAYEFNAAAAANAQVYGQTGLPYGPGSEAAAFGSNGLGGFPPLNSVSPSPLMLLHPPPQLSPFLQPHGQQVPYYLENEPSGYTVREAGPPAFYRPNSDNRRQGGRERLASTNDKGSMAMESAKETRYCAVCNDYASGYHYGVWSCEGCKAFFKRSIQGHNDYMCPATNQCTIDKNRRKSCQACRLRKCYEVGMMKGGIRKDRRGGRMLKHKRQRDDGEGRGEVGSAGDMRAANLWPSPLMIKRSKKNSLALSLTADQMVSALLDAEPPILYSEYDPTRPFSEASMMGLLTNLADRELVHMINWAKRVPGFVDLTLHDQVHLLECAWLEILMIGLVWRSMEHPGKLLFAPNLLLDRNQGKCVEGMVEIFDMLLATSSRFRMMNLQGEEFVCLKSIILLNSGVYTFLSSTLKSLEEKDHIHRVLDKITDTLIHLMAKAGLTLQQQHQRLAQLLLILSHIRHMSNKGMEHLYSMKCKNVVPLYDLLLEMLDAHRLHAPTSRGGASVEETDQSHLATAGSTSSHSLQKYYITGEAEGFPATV
Conditions: 4 h; for Total ER protein (%) / protein (%) ER: replicate
Protocol: Prior to NanoBiT Cell-Based Immunoassay, 50,000 cells were seeded in 160 µl of complete growth media per well of a 96-well plate and incubated overnight. […] If necessary, the cell culture media were replaced with serum-free media after the cells were stably adherent on the plate and incubated overnight. To treat cells with activators or inhibitors, medium was changed to 30 µl of medium containing inhibitors. If activation of a specific pathway is needed, the cells were stimulated with 10 µl of medium containing activators. To lyse the cells, 10 µl of lysis buffer containing 0.1% digitonin diluted in 1X immunoassay buffer with protease and phosphatase inhibitors was added and the plates were mixed vigorously for 20 min. Then, 50 µl of an antibody mix containing two primary antibodies against the target protein and NanoBiT detecting antibodies (0.3 µl each per well), diluted in 1X immunoassay buffer was added to the lysates. The plates were incubated at 23 °C for 90 min, followed by the addition of 25 µl of Nano-Glo® reagent consisting of Nano-Glo® Luciferase Assay Substrate mixed with 1X immunoassay buffer. Luminescence was measured using a plate-reading luminometer.
All 96-well assay plates were read using a GloMax® 96 Microplate Luminometer from Promega. The instrument was set to 0.5 s integration time. In order to obtain net change of signal, the reagent background values (signal from the well containing all reagent except primary antibodies) were subtracted from the sample values. To plot and analyze the data, Microsoft Excel and GraphPad Prism® Software were used. IC50 values were determined by using a nonlinear regression fit to a sigmoidal dose response (variable slope).

[1] = Fulvestrant 0.0976562 nM, MCF-7, Fig 7c
[2] = Fulvestrant 0.195312 nM, MCF-7, Fig 7c
[3] = Fulvestrant 0.390625 nM, MCF-7, Fig 7c
[4] = Fulvestrant 0.78125 nM, MCF-7, Fig 7c
[5] = Fulvestrant 1.5625 nM, MCF-7, Fig 7c
[6] = Fulvestrant 3.125 nM, MCF-7, Fig 7c
[7] = Fulvestrant 6.25 nM, MCF-7, Fig 7c
[8] = Fulvestrant 25 nM, MCF-7, Fig 7c
[9] = Fulvestrant 50 nM, MCF-7, Fig 7c
[10] = Fulvestrant 100 nM, MCF-7, Fig 7c

## C[C@]12CC[C@@H]3c4ccc(O)cc4C[C@@H](CCCCCCCCC[S+]([O-])CCCC(F)(F)C(F)(F)F)[C@H]3[C@@H]1CC[C@@H]2O (some centres unmarked) [Fulvestrant]
0.0976562 nM, MCF-7, Fig 7b
  Average Total ER protein (%): 100%
  Raw data ER: 1203000 and 1328000
  Subtract reagent background ER: 1167700 and 974100 and 1096600
  Total ER protein (%): 102.1% and 102.0%
0.195312 nM, MCF-7, Fig 7b
  Raw data ER: 1310000 and 1183000 and 1306000
  Subtract reagent background ER: 1076600 and 955300 and 1077400
  Total ER protein (%): 94.2% and 100.2%
0.390625 nM, MCF-7, Fig 7b
  Average Total ER protein (%): 88%
  Raw data ER: 1176000 and 1121000
  Subtract reagent background ER: 945500 and 891700 and 1008700
  Total ER protein (%): 82.7% and 87.9% and 93.8%
0.78125 nM, MCF-7, Fig 7b
  Average Total ER protein (%): 73%
  Raw data ER: 1017000 and 962500 and 1057000
  Subtract reagent background ER: 788000 and 733700 and 828700
  Total ER protein (%): 68.9% and 72.3% and 77.1%
1.5625 nM, MCF-7, Fig 7b
  Average Total ER protein (%): 52%
  Raw data ER: 787000 and 772400 and 799700
  Subtract reagent background ER: 564400 and 548300 and 571400
  Total ER protein (%): 49.4% and 54.1% and 53.2%
3.125 nM, MCF-7, Fig 7b
  Average Total ER protein (%): 36%
  Raw data ER: 594200 and 628300
  Subtract reagent background ER: 405200 and 370300 and 399100
  Total ER protein (%): 35.4% and 36.5% and 37.1%
6.25 nM, MCF-7, Fig 7b
  Average Total ER protein (%): 29%
  Raw data ER: 540300 and 521900
  Subtract reagent background ER: 294500 and 313200
  Total ER protein (%): 27.5% and 29.0% and 29.1%
25 nM, MCF-7, Fig 7b
  Average Total ER protein (%): 23%
  Raw data ER: 474000 and 455500 and 481300
  Subtract reagent background ER: 248500 and 229500 and 255100
  Total ER protein (%): 21.7% and 22.6% and 23.7%
50 nM, MCF-7, Fig 7b
  Average Total ER protein (%): 22%
  Raw data ER: 467500 and 453000 and 467700
  Subtract reagent background ER: 244000 and 227100 and 240600
  Total ER protein (%): 21.3% and 22.4%
100 nM, MCF-7, Fig 7b
  Average Total ER protein (%): 21%
  Raw data ER: 455900 and 441400 and 453000
  Subtract reagent background ER: 231900 and 220300 and 227600
  Total ER protein (%): 20.3% and 21.7% and 21.2%
[1]
  Average ER protein (%): 104.6%
  Raw data ER: 1438000 and 1444000 and 1315000
  Subtract reagent background ER: 1210700 and 1216700 and 1087700
  protein (%) ER: 106.1% and 108.4% and 99.4%
[2]
  Average ER protein (%): 107.5%
  Raw data ER: 1431000 and 1445000 and 1414000
  Subtract reagent background ER: 1204100 and 1218100 and 1187100
  protein (%) ER: 105.5% and 108.5% and 108.4%
[3]
  Average ER protein (%): 98.2%
  Raw data ER: 1290000 and 1346000 and 1340000
  Subtract reagent background ER: 1063550 and 1119550 and 1113550
  protein (%) ER: 93.2% and 99.7% and 101.7%
[4]
  Average ER protein (%): 82.3%
  Raw data ER: 1111000 and 1176000
  Subtract reagent background ER: 884650 and 927650 and 949650
  protein (%) ER: 77.5% and 82.6% and 86.7%
[5]
  Average ER protein (%): 59.5%
  Raw data ER: 890700 and 898000 and 891300
  Subtract reagent background ER: 663400 and 670700 and 664000
  protein (%) ER: 58.2% and 59.7% and 60.7%
[6]
  Average ER protein (%): 41.1%
  Raw data ER: 677900 and 688400 and 691000
  Subtract reagent background ER: 452050 and 462550 and 465150
  protein (%) ER: 39.6% and 41.2% and 42.5%
[7]
  Average ER protein (%): 31.0%
  Raw data ER: 573300 and 576800 and 566100
  Subtract reagent background ER: 351400 and 340700
  protein (%) ER: 30.5% and 31.3% and 31.1%
[8]
  Average ER protein (%): 24.2%
  Raw data ER: 499600 and 500900 and 484100
  Subtract reagent background ER: 275200 and 276500 and 259700
  protein (%) ER: 24.1% and 24.6% and 23.7%
[9]
  Average ER protein (%): 22.7%
  Raw data ER: 476500 and 482700 and 473700
  Subtract reagent background ER: 253450 and 259650 and 250650
  protein (%) ER: 22.2% and 23.1% and 22.9%
[10]
  Average ER protein (%): 20.4%
  Raw data ER: 453900 and 451400 and 438800
  Subtract reagent background ER: 234150 and 231650 and 219050
  protein (%) ER: 20.5% and 20.6% and 20.0%
MCF-7 cells, titration
  lowering of total ER protein level: over 80%
